ChEMBL document CHEMBL1133411, “The design, synthesis and activity of non-ATP competitive inhibitors of pp60(c-src) tyrosine kinase. Part 2: hydroxyindole derivatives” (Bioorg Med Chem Lett, 2000)
Activity calls are given as the source filed them.

What follows are molecules tested against Proto-oncogene tyrosine-protein kinase Src (Homo sapiens) (UniProt P12931) (assay: Percent inhibition against human recombinant p60 c-Src tyrosine kinase at 500 uM).
Chain of Proto-oncogene tyrosine-protein kinase Src (Homo sapiens) (P12931 2-536 limits assumed): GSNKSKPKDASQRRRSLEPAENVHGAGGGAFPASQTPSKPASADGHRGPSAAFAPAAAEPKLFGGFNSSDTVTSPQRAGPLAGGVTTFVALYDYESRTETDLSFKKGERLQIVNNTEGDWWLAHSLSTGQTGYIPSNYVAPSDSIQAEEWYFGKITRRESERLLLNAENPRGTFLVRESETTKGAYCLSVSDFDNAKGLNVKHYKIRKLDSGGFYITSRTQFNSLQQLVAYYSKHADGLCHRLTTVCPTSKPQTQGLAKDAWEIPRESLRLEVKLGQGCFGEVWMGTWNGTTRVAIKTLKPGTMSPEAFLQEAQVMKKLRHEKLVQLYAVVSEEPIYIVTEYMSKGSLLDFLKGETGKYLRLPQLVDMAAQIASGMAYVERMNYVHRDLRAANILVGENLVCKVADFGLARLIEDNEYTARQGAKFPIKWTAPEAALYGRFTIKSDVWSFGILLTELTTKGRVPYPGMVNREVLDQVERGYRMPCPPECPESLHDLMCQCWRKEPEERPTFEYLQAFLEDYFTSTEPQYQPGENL
Molecule `COC(=O)c1cc2cc(O)ccc2[nH]1` has an inhibition of 40%.

What follows are molecules tested against Proto-oncogene tyrosine-protein kinase Src (Homo sapiens) (UniProt P12931) (assay: Percent inhibition determined against human recombinant p60 c-Src tyrosine kinase at 100 uM).
In the case of `O=C(O)Cc1ccc(NC(=O)c2cc3cc(O)ccc3[nH]2)cc1`, the inhibition is reported as 7%.
`COC(=O)Cc1ccc(NC(=O)c2cc3cc(O)ccc3[nH]2)cc1` was tested, and the inhibition was 32%.
Molecule `O=C(NCc1ccc(O)cc1)c1cc2ccccc2[nH]1` has an inhibition of 36%.
With `C[C@H](NC(=O)c1cc2cc(O)ccc2[nH]1)c1cccc(O)c1` the inhibition was 13%.
`COc1ccccc1CNC(=O)c1cc2cc(O)ccc2[nH]1` showed an inhibition of 21%.
With `COC(=O)c1ccc(CNC(=O)c2cc3cc(O)ccc3[nH]2)cc1` the inhibition was 11%.
`O=C(NCc1ccc(O)cc1)c1cc2cc(O)ccc2[nH]1` was tested, and the inhibition was 54%.
In the case of `O=C(NCc1ccccc1O)c1cc2cc(O)ccc2[nH]1`, the inhibition is reported as 24%.
`COc1cccc(NC(=O)c2cc3cc(O)ccc3[nH]2)c1` showed an inhibition of 21%.
Work on `O=C(Nc1cccc(F)c1)c1cc2cc(O)ccc2[nH]1` yielded an inhibition of 21%.
`O=C(Nc1ccc(O)cc1)c1cc2cc(O)ccc2[nH]1` gave an inhibition of 45%.
For `CCOC(=O)c1cc2cc(O)c(O)cc2[nH]1`, the inhibition was 28%.
Work on `O=C(Nc1ccccc1O)c1cc2cc(O)ccc2[nH]1` yielded an inhibition of 43%.
`O=C(Nc1cccc(O)c1)c1cc2cc(O)ccc2[nH]1` was tested, and the inhibition was 30%.
In the case of `COc1ccccc1NC(=O)c1cc2cc(O)ccc2[nH]1`, the inhibition is reported as 3%.
With `COc1ccc(CNC(=O)c2cc3cc(O)ccc3[nH]2)cc1` the inhibition was 18%.
Molecule `C[C@@H](NC(=O)c1cc2cc(O)ccc2[nH]1)c1cccc(O)c1` has an inhibition of 15%.
In the case of `O=C(NCc1cccc(F)c1)c1cc2cc(O)ccc2[nH]1`, the inhibition is reported as 57%.
Molecule `O=C(NCc1cccc(O)c1)c1cc2cc(O)ccc2[nH]1` has an inhibition of 74%.

The molecules below were run against Proto-oncogene tyrosine-protein kinase Src (Homo sapiens) (UniProt P12931) (assay: Percent inhibition of human recombinant p60 c-Src tyrosine kinase at 100 uM (inactive)).
With `O=C(O)c1ccc(CNC(=O)c2cc3cc(O)ccc3[nH]2)cc1` the inhibition was “inactive”.
